Test results from ChEMBL document CHEMBL5034004, “Discovery of M3 Antagonist-PDE4 Inhibitor Dual Pharmacology Molecules for the Treatment of Chronic Obstructive Pulmonary Disease” (J Med Chem, 2021).
Converted amounts (≈) assume the structure as drawn. Each block holds one compound with its values, some of them ahead of it.

Assays:
[1] = biological target: T1, Muscarinic acetylcholine receptor M3 (Homo sapiens, UniProt P20309); experiment: Displacement of [3H]-N-methyl Scopolamine Chloride from human M3 receptor membranes incubated for 2 hrs by scintillation counting analysis; format: cell membranes, Cell membrane
Target sequence in this assay (P20309 whole entry): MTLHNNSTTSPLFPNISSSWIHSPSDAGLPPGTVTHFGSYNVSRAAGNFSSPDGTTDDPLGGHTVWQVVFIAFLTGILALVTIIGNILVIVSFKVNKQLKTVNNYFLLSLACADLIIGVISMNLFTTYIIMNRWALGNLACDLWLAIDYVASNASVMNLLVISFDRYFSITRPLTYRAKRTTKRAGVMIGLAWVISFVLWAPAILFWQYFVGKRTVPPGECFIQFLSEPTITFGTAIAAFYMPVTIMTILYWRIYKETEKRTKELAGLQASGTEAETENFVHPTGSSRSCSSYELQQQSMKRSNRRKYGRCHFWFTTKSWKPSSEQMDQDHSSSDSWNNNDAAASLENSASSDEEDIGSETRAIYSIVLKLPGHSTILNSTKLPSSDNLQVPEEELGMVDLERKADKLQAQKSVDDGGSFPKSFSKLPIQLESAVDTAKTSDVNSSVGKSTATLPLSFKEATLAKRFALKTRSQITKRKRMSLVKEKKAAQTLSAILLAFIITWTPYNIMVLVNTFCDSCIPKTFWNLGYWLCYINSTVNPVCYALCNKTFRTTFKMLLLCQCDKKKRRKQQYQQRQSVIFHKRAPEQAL

[2] = Antagonist activity at muscarinic M3 receptor in guinea pig trachea assessed as inhibition of carbachol-induced contraction; format: tissue-based, Cavia porcellus
[3] = biological target: 3',5'-cyclic-AMP phosphodiesterase 4B (Homo sapiens, UniProt Q07343); experiment: Inhibition of human recombinant PDE4B2 assessed as […] in cAMP level incubated for 2 hrs by LANCE Ultra cAMP TR-FRET assay
Sequence of 3',5'-cyclic-AMP phosphodiesterase 4B (Q07343 whole entry): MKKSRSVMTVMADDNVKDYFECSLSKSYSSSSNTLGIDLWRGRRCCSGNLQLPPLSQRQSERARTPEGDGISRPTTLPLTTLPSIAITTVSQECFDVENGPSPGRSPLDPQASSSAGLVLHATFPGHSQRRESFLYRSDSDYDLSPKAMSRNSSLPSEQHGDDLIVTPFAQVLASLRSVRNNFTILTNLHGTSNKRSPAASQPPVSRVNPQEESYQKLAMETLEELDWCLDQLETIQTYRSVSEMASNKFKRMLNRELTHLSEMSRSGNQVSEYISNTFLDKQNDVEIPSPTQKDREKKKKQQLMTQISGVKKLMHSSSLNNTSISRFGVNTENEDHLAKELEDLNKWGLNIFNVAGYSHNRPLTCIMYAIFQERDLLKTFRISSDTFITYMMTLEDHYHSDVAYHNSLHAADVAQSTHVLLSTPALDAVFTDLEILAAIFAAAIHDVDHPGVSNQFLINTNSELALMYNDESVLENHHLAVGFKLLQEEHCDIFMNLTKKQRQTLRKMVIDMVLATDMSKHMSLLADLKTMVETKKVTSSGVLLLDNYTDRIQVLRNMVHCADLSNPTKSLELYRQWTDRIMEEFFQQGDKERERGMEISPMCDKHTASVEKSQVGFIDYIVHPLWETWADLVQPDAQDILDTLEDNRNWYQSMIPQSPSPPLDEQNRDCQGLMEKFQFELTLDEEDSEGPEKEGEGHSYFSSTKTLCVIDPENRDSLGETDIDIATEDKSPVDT

[4] = Antiinflammatory activity in human PBMCs assessed as inhibition of LPS-induced TNF-alpha release measured after 18 hrs by ELISA; format: functional, tissue-based, PBMC; conditions: for IC50: Homo sapiens, PBMC, 18 h; for pIC50: pbmc
[5] = tested on: Cavia porcellus; experiment: Bronchodilatory activity in IT dosed Dunkin Hartley guinea pig model assessed as inhibition of acetylcholine-induced bronchoconstriction measured after 1 hr by Konzett-Roessler methodology; format: functional
[6] = tested on: Cavia porcellus; experiment: Bronchodilatory activity in Dunkin Hartley guinea pig model assessed as inhibition of acetylcholine-induced bronchoconstriction at 3 nmol/kg, IT measured after 1 hr by Konzett-Roessler methodology relative to control; format: functional; conditions: for inhibition in vivo at 0.003 µmol/kg: Cavia porcellus, Dunkin Hartley
[7] = tested on: Cavia porcellus; experiment: Bronchodilatory activity in Dunkin Hartley guinea pig model assessed as inhibition of acetylcholine-induced bronchoconstriction at 10 nmol/kg, IT measured after 1 hr by Konzett-Roessler methodology relative to control; format: functional
[8] = biological target: Muscarinic acetylcholine receptor M3 (Rattus norvegicus, UniProt P08483); experiment: Antagonist activity at muscarinic M3 receptor in rat trachea assessed as inhibition of carbachol-induced contraction; format: functional, tissue-based
Sequence of Muscarinic acetylcholine receptor M3 (Rattus norvegicus, UniProt P08483) (P08483 whole entry): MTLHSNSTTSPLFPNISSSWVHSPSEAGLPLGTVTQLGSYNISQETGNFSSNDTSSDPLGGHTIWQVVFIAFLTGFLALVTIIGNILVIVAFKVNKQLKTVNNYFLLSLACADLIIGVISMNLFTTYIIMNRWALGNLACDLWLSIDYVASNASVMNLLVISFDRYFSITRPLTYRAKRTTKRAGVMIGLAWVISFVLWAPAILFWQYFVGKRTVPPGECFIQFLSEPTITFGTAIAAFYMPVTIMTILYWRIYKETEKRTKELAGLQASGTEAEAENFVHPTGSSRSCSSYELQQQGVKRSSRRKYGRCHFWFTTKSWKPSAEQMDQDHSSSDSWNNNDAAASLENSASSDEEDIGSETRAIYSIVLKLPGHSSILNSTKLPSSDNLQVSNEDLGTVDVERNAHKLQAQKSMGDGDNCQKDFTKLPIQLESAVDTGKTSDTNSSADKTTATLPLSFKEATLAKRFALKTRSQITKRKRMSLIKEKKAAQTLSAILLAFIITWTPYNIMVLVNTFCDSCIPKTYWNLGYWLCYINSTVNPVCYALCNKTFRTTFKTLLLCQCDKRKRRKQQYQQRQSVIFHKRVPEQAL

[9] = tested on: Cavia porcellus; experiment: Bronchodilatory activity in Dunkin Hartley guinea pig model assessed as inhibition of acetylcholine-induced bronchoconstriction at 30 nmol/kg, IT measured after 16 hrs by Konzett-Roessler methodology relative to control; format: functional
[10] = biological target: T1, Muscarinic acetylcholine receptor M3; experiment: Binding affinity to human M3 receptor membranes assessed as association half life by liquid scintillation counting analysis; conditions: Cell membrane, filed as antagonist
Target sequence in this assay (P20309 whole entry, looked up): as the sequence (P20309 whole entry) above

[11] = biological target: T1, Muscarinic acetylcholine receptor M3; experiment: Binding affinity to human M3 receptor membranes assessed as dissociation half life by liquid scintillation counting analysis; conditions: Cell membrane, filed as antagonist
Target sequence in this assay (P20309 whole entry, looked up): as the sequence (P20309 whole entry) above

[12] = Kinetic solubility of compound in PBS at pH 7.4 […] incubated for 2 hrs by LC-UV and LC-MS analysis; format: physicochemical; conditions: read-out: Kinetic_solubility
[13] = tested on: Cavia porcellus; experiment: Bronchodilatory activity in Dunkin Hartley guinea pig model assessed as inhibition of acetylcholine-induced bronchoconstriction at 3 nmol/kg, IT measured after 16 hrs by Konzett-Roessler methodology relative to control; format: functional; conditions: for inhibition (INH): 0.003 umol/kg
[14] = Toxicity in ferret assessed as nausea-like score at 10 umol/kg, IT observed for 4 hrs (Rvb= 12.83+/-5.10); set-up: species or system Mustela putorius furo; conditions: in vivo, inhaled_or_intranasal, dose 10 µmol/kg
[15] = biological target: T2, Muscarinic acetylcholine receptor M2 (Homo sapiens, UniProt P08172); experiment: Displacement of [3H]-N-methyl Scopolamine Chloride from human M2 receptor membranes incubated for 2 hrs by scintillation counting analysis; format: cell membranes, Cell membrane
T2 sequence (P08172 whole entry): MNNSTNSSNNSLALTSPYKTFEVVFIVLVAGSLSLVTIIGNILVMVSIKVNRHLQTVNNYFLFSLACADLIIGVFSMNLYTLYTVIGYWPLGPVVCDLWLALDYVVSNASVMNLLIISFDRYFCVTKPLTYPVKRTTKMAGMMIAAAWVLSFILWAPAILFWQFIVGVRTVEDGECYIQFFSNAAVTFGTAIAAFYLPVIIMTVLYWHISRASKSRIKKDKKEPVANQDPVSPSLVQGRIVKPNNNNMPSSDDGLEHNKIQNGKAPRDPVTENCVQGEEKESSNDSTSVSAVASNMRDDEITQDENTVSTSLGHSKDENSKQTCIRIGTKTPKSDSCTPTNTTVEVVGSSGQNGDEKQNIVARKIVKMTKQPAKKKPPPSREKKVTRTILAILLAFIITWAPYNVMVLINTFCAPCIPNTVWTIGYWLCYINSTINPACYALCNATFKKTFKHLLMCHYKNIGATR

[16] = tested on: Rattus norvegicus; experiment: Antiinflammatory activity in ovalbumin induced Brown Norway rat airway inflammation model assessed as reduction in eosinophil counts in bronchoalveolar lavage administered via inhalation for 3 consecutive days and measured after 24 hrs post last dose; format: functional; conditions: inhaled or nasal
[17] = tested on: Rattus norvegicus; experiment: Antiinflammatory activity in ovalbumin induced Brown Norway rat airway inflammation model assessed as reduction in eosinophil counts in bronchoalveolar lavage at 1 umol/kg, INH for 3 consecutive days and measured after 24 hrs post last dose; format: functional; set-up: scale not given: the % may be the effect or the level left; conditions: dose 1 µmol/kg; time 3 day
[18] = Plasma protein binding in human assessed as bound fraction at 0.5 to 2 uM measured after 30 mins by HPLC-MS/MS analysis; format: ADME, cell-free; conditions: dose 0.5-2 µM, read-out: PPB (converted)
[19] = Plasma protein binding in rat assessed as bound fraction at 0.5 to 2 uM measured after 30 mins by HPLC-MS/MS analysis; format: ADME, cell-free; conditions: dose 0.5-2 µM, read-out: PPB (converted)
[20] = Stability in human plasma assessed as half life at 5 uM measured up to 180 mins by HPLC-MS/MS analysis; format: ADME, cell-free
[21] = Stability in rat plasma assessed as half life at 5 uM measured up to 180 mins by HPLC-MS/MS analysis; format: ADME, cell-free
[22] = Microsomal stability in human liver microsomes assessed as intrinsic clearance at 1 uM measured up to 60 mins by HPLC-MS/MS analysis; format: ADME, Microsome; conditions: read-out: CLH
[23] = Microsomal stability in rat liver microsomes assessed as intrinsic clearance at 1 uM measured up to 60 mins by HPLC-MS/MS analysis; format: ADME, Microsome; conditions: read-out: CLH
[24] = Permeability across apical to basolateral side in human Caco2 cells at 10 uM measured after 1 hr by LC-MS/MS analysis; format: ADME, cell-based; conditions: Caco-2
[25] = Toxicity in ferret assessed as nausea-like score at 1 umol/kg, IT observed for 4 hrs (Rvb= 12.83+/-5.10); set-up: species or system Mustela putorius furo; conditions: in vivo, inhaled_or_intranasal, dose 1 µmol/kg
[26] = Toxicity in ferret assessed as induction of emesis at 1 umol/kg, IT measured for 4 hrs; set-up: species or system Mustela putorius furo; conditions: in vivo, inhaled_or_intranasal, dose 1 µmol/kg
[27] = Toxicity in ferret assessed as induction of emesis at 10 umol/kg, IT measured for 4 hrs; set-up: species or system Mustela putorius furo; conditions: in vivo, inhaled_or_intranasal, dose 10 µmol/kg
[28] = tested on: Cavia porcellus; experiment: Bronchodilatory activity in Dunkin Hartley guinea pig model assessed as inhibition of acetylcholine-induced bronchoconstriction at 30 nmol/kg, IT measured after 1 hrs by Konzett-Roessler methodology relative to control; format: functional
[29] = Cavia porcellus, Dunkin Hartley, 1 h, read-out: ED50
[30] = Cavia porcellus, Dunkin Hartley, read-out: ED50

Structure (SMILES): COc1ccc([C@H](Cc2c(Cl)c[n+]([O-])cc2Cl)OC(=O)c2ccc(CN(C(=O)O[C@H]3CN4CCC3CC4)c3ccccc3)s2)cc1OC
- Ki [1]: 0.1 nM
- pIC50 [2]: 8.4
- IC50 [3]: 1 nM
- IC50 [4]: 0.794 nM
- ED50 [5, 29]: 0.0016 µmol/kg
- inhibition in vivo at 0.003 µmol/kg ([6]; 1 h): 82%

Structure (SMILES): COc1ccc([C@H](Cc2c(Cl)c[n+]([O-])cc2Cl)OC(=O)c2ccc(CN(C(=O)O[C@H]3CN4CCC3CC4)c3ccccn3)s2)cc1OC
- Ki [1]: 0.501 nM
- pIC50 [2]: 8.7
- IC50 [3]: 0.631 nM
- IC50 [4]: 0.501 nM
- inhibition in vivo at 0.01 µmol/kg [7]: 78%

- Ki [1]: 0.126 nM
- IC50 [3]: 1.58 nM
- pIC50 [4]: 8.5
- IC50 [8]: 1.58 nM
Structure (SMILES): COc1ccc([C@H](Cc2c(Cl)c[n+]([O-])cc2Cl)OC(=O)c2ccc(CNC(C(=O)O[C@@H]3CCN(C)C3)c3ccccc3)s2)cc1OC (stereo in doubt; 92f)
- ED50 [5, 30]: 0.001 µmol/kg
- inhibition in vivo at 0.003 µmol/kg [6]: 96%
- inhibition in vivo at 0.03 µmol/kg [9]: 41%

Structure (SMILES): COc1ccc([C@H](Cc2c(Cl)c[n+]([O-])cc2Cl)OC(=O)c2ccc(CNC(C(=O)O[C@H]3CN4CCC3CC4)c3ccccc3)s2)cc1OC (stereo in doubt; 92a) [listing 1 of 2 here]
- T1/2 [10]: 13.7 h
- T1/2 [11]: 29.5 h

Structure (SMILES): COc1ccc([C@H](Cc2c(Cl)c[n+]([O-])cc2Cl)OC(=O)c2ccc(CNC(C(=O)O[C@H]3CN4CCC3CC4)c3ccccc3)s2)cc1OC (stereo in doubt; 92a) [listing 2 of 2 here]
- Ki [1]: 0.0631 nM
- pIC50 [2]: 9
- pIC50 [3]: 8.8
- pIC50 [4]: 8.8
- solubility kinetic at 2 h [12]: 145 µM (≈ 105 µg/mL)
- ED50 ([5]; 1 h): 0.0007 µmol/kg
- inhibition (INH) ([6]; 0.003 umol/kg, 1 h): 74%
- inhibition (INH) [13]: 67%
- IC50 [8]: 1 nM
- Activity [14]: 12.83
- Ki [15]: 0.2 nM
- ED50 [16]: 0.03 µmol/kg
- Activity [17]: 54%
- fraction unbound at 0.5 h, up to 2 µM [18]: 0.07
- fraction unbound at 0.5 h, up to 2 µM [19]: 0.086
- half-life at 5 µM [20]: 0.183 h
- half-life at 5 µM [21]: 9 min
- microsomal CLint at 1 µM [22]: 213 µL/min/mg
- microsomal CLint at 1 µM [23]: 126 µL/min/mg
- Papp A→B at 1 h, 10 µM [24]: 1.6 ×10⁻⁶ cm/s
- Activity [25]: 30.67
- Activity [26]: Non-Toxic
- Activity [27]: Non-Toxic

Structure (SMILES): O=C(Nc1c(Cl)cncc1Cl)c1ccc(OC(F)F)c(OCC2CC2)c1 [ROFLUMILAST]
- Activity [14]: 72.5
- Activity [27]: Toxic

Structure (SMILES): COc1ccc([C@H](Cc2c(Cl)c[n+]([O-])cc2Cl)OC(=O)c2ccc(CNC(C(=O)O[C@H]3CN4CCC3CC4)c3ccccc3)s2)cc1OC (stereo in doubt; 91a)
- Ki [1]: 0.126 nM
- pIC50 [2]: 8.9
- IC50 [3]: 1.58 nM
- IC50 [4]: 3.16 nM
- ED50 ([5]; 1 h): 0.0016 µmol/kg
- inhibition in vivo at 0.003 µmol/kg ([6]; 1 h): 73%
- inhibition (INH) [13]: 32%
- IC50 [8]: 2 nM

Structure (SMILES): COc1ccc([C@H](Cc2c(Cl)c[n+]([O-])cc2Cl)OC(=O)c2ccc(CN(C(=O)O[C@H]3CN4CCC3CC4)c3ccccc3F)s2)cc1OC
- Ki [1]: 0.126 nM
- pIC50 [2]: 9.1
- IC50 [3]: 0.501 nM
- IC50 [4]: 1.26 nM
- solubility kinetic at 2 h [12]: 134 µM (≈ 97.9 µg/mL)
- ED50 [5, 29]: 0.0005 µmol/kg
- inhibition in vivo at 0.003 µmol/kg ([6]; 1 h): 97%
- inhibition in vivo at 0.003 µmol/kg ([13]; Cavia porcellus, Dunkin Hartley): 38%

- Ki [1]: 0.251 nM
- IC50 [3]: 0.501 nM
- pIC50 [4]: 8.6
- IC50 [8]: 1.58 nM
Structure (SMILES): COc1ccc([C@H](Cc2c(Cl)c[n+]([O-])cc2Cl)OC(=O)c2ccc(CNC(C(=O)OC3CCN(C)CC3)c3ccccc3)s2)cc1OC (stereo in doubt; 92e)
- ED50 [5, 30]: 0.0041 µmol/kg
- inhibition in vivo at 0.03 µmol/kg [28]: 75%
- inhibition in vivo at 0.03 µmol/kg [9]: 2%

Structure (SMILES): C[N+]1(C)[C@@H]2C[C@H](OC(=O)C(O)(c3cccs3)c3cccs3)C[C@H]1[C@@H]1O[C@@H]12
- T1/2 [10]: 10.3 h
- T1/2 [11]: 22.5 h
